Literature values in patent publication US20140296485A1, “ANIONIC DISPLACER MOLECULES FOR HYDROPHOBIC DISPLACEMENT CHROMATOGRAPHY” (SACHEM, INC., priority 2011, published 2014).

Details: pH-buffering compounds

pKa of pH buffer	Compound
5.9	CC(C)(CC(=O)O)CC(=O)O [3,3-dimethylglutaric acid]
5.2	O=C(O)CCC(=O)O [succinic acid]
